In patent publication US11753408B2, “Compounds and method for blocking transmission of malarial parasite” (The United States of America, as represented by the …, priority 2016, dated 2023):

What was measured:
[1] = system: Asexual parasites of P. falciparum strain 3D7; test: In vitro drug activity on asexual parasites (SYBR Green assay); type: cell-based, Plasmodium falciparum
How it was run: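 3D7 parasites at 0.5% parasitemia and 2% hematocrit were exposed to drugs (DMSO ≤0.5%) for 72 h under standard culture conditions, in duplicate. After freeze-thaw lysis, SYBR Green I lysis buffer was added for 30 min at room temperature, and fluorescence was read at 490/520 nm.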

[2] = PAMPA permeability; type: in vitro ADME
[3] = target: mTOR (Homo sapiens, UniProt P42345); test: mTOR activity (no method described); type: biochemical
[4] = Solubility at pH 7.4; type: physicochemical
[5] = Microsomal stability (rat); type: in vitro ADME; settings: rat microsomes

Row | SMILES | EC50 [1] | PAMPA Permeability [2] | mTOR [3] | Sol @ pH 7.4 [4] | Microsomal Stability (rat) T1/2 [5]
1 | O=C(NCCN1CCOCC1)c1ccc(-n2c(=O)ccc3cnc4ccc(-c5ccc(Cl)cc5)cc4c32)cc1 [Compound 215] | 178 nM | 492 ×10⁻⁶ cm/s | 0.7638 µM | <1 ug/mL | 6.3 min
2 | CCNC(=O)c1ccc(-n2c(=O)ccc3cnc4ccc(-c5ccc(Cl)cc5)cc4c32)cc1 [Compound 216] | 42.2 nM | 1.1 ×10⁻⁶ cm/s | 0.8321 µM | <1 ug/mL | 6.7 min
3 | O=C(c1ccc(-n2c(=O)ccc3cnc4ccc(-c5ccc(CCN6CCCC6)cc5)cc4c32)cc1)N1CCOCC1 [Compound 217] | 531 nM | 130 ×10⁻⁶ cm/s | 17.83 µM | >83 ug/mL | >30 min
4 | CN(C)CC#Cc1ccc2ncc3ccc(=O)n(-c4ccc(C(=O)N5CCOCC5)cc4)c3c2c1 [Compound 218] | 1680 nM | 100 ×10⁻⁶ cm/s | 16.25 µM | >69 ug/mL | >30 min
5 | O=C(c1ccc(-n2c(=O)ccc3cnc4ccc(-c5ccc(OC6CCNCC6)cc5)cc4c32)cc1)N1CCOCC1 [Compound 219] | 371 nM | 3.3 ×10⁻⁶ cm/s | 3.288 µM | 6.3 ug/mL | >30 min
6 | O=C(NCCN1CCCC1)c1ccc(-n2c(=O)ccc3cnc4ccc(-c5ccc(Cl)cc5)cc4c32)cc1 [Compound 220] | 156 nM | 127 ×10⁻⁶ cm/s | 4.247 µM | 9.4 ug/mL | 12.6 min
7 | COc1cc(-c2ccc3ncc4ccc(=O)n(-c5ccc(C(=O)NC6CC6)cc5)c4c3c2)ccc1Cl [Compound 221] | 45.5 nM | 133 ×10⁻⁶ cm/s | 1.504 µM | <1 ug/mL | 22.2 min
8 | Cc1cc(C(=O)NC2CC2)ccc1-n1c(=O)ccc2cnc3ccc(-c4ccc(F)c(O)c4)cc3c21 [Compound 222] | 22.8 nM | 758 ×10⁻⁶ cm/s | 0.8206 µM | 7.1 ug/mL | 27.2 min
9 | Cc1cc(C(=O)NC2CC2)ccc1-n1c(=O)ccc2cnc3ccc(-c4ccc(Cl)c(O)c4)cc3c21 [Compound 225] | 19.8 nM | 735 ×10⁻⁶ cm/s | 0.9169 µM | <1 ug/mL | 23.3 min
10 | O=C(NC1COC1)c1ccc(-n2c(=O)ccc3cnc4ccc(-c5ccc(Cl)cc5)cc4c32)cc1 [Compound 231] | 22.7 nM | 364 ×10⁻⁶ cm/s | 0.8505 µM | <1 ug/mL | 18 min
11 | O=C(NC1CNC1)c1ccc(-n2c(=O)ccc3cnc4ccc(-c5ccc(Cl)cc5)cc4c32)cc1 [Compound 232] | 53.4 nM | 7.6 ×10⁻⁶ cm/s | 1.065 µM | 9.2 ug/mL | >30 min
12 | O=C(NC1CC1)c1ccc(-n2c(=O)ccc3cnc4ccc(-c5ccc(CN6CCCC6)cc5)cc4c32)cc1 [Compound 233] | 162 nM | 155 ×10⁻⁶ cm/s | 6.306 µM | >76 ug/mL | >30 min
13 | Cc1nc2ccc(-c3ccc(Cl)cc3)cc2c2c1ccc(=O)n2-c1ccc(C(=O)N2CCOCC2)cc1 [Compound 234] | 2220 nM | 874 ×10⁻⁶ cm/s | 18.92 µM | <1 ug/mL | 1.4 min
14 | O=C(c1ccc(-n2c(=O)ccc3c(F)nc4ccc(-c5ccc(Cl)cc5)cc4c32)cc1)N1CCOCC1 [Compound 235] | 24400 nM | 564 ×10⁻⁶ cm/s | 100 µM | <1 ug/mL | 3.4 min
15 | O=C(c1ccc(-n2c(=O)ccc3c[n+]([O-])c4ccc(-c5ccc(Cl)cc5)cc4c32)cc1)N(CCO)CCO [Compound 236] | 1200 nM | < 1 ×10⁻⁶ cm/s | 50 µM | >78 ug/mL | >30 min
16 | O=C(O)c1ccc(-n2c(=O)ccc3c(O)nc4ccc(-c5ccc(Cl)cc5)cc4c32)cc1 [Compound 237] | 39500 nM | 3.3 ×10⁻⁶ cm/s | 100 µM | >65 ug/mL | >30 min
17 | Nc1cc(-c2ccc3ncc4ccc(=O)n(-c5ccc(C(=O)NC6CC6)cc5)c4c3c2)ccc1Cl [Compound 238] | 56.8 nM | 439 ×10⁻⁶ cm/s | 0.2148 µM | <1 ug/mL | >30 min

Row | SMILES | EC50 [1] | PAMPA Permeability [2] | mTOR [3] | Sol @ pH 7.4 [4] | Microsomal Stability (rat) T1/2 [5]
18 | NC(=O)c1ccc(-n2c(=O)ccc3cnc4ccc(-c5ccc(Cl)cc5)cc4c32)cc1 [Compound 239] | 17.5 nM | 79.9 ×10⁻⁶ cm/s | 0.2422 µM | <1 ug/mL | >30 min
19 | NCCc1ccc(-c2ccc3ncc4ccc(=O)n(-c5ccc(C(=O)NC6CC6)cc5)c4c3c2)cc1 [Compound 240] | 52.9 nM | < 1 ×10⁻⁶ cm/s | 0.4436 µM | 31.6 ug/mL | >30 min
20 | CN(C)CCc1ccc(-c2ccc3ncc4ccc(=O)n(-c5ccc(C(=O)NC6CC6)cc5)c4c3c2)cc1 [Compound 241] | 335 nM | 18.6 ×10⁻⁶ cm/s | 6.061 µM | >74 ug/mL | >30 min
21 | O=C(c1ccc(-n2c(=O)ccc3cnc4ccc(-c5ccc6c(c5)CNC6)cc4c32)cc1)N1CCOCC1 [Compound 242] | 489 nM | < 1 ×10⁻⁶ cm/s | 0.373 µM | >74 ug/mL | >30 min
22 | CCN(CC)Cc1ccc(-c2ccc3ncc4ccc(=O)n(-c5ccc(C(=O)NC6CC6)cc5)c4c3c2)cc1 [Compound 243] | 677 nM | 382 ×10⁻⁶ cm/s | 14.6 µM | >76 ug/mL | >30 min
23 | CN1Cc2ccc(-c3ccc4ncc5ccc(=O)n(-c6ccc(C(=O)N7CCOCC7)cc6)c5c4c3)cc2C1 [Compound 244] | 1640 nM | 216 ×10⁻⁶ cm/s | 7.873 µM | >76 ug/mL | >30 min
24 | N#Cc1ccc2ncc3ccc(=O)n(-c4ccc(C(=O)N5CCOCC5)cc4)c3c2c1 [Compound 245] | 3820 nM | 11.7 ×10⁻⁶ cm/s | 10.41 µM | >61 ug/mL | >30 min
25 | CC(C)(N)c1ccc(-c2ccc3ncc4ccc(=O)n(-c5ccc(C(=O)NC6CC6)cc5)c4c3c2)cc1 [Compound 246] | 1260 nM | 1.5 ×10⁻⁶ cm/s | 0.6459 µM | >72 ug/mL | >30 min
26 | Cc1cc(C(=O)NC2CC2)ccc1-n1c(=O)ccc2cnc3ccc(-c4ccc(Cl)cc4)nc3c21 [Compound 247] | 81.8 nM | 846 ×10⁻⁶ cm/s | 1.903 µM | <1 ug/mL | 16.7 min
27 | CCN(CC)CCNC(=O)c1ccc(-n2c(=O)ccc3cnc4ccc(-c5ccc(Cl)cc5)cc4c32)c(OC)c1 [Compound 249] | 576 nM | 1070 ×10⁻⁶ cm/s | 14.76 µM | >82 ug/mL | 7.9 min
28 | COc1cc(C(=O)NC2CCN(CCN(C)C)CC2)ccc1-n1c(=O)ccc2cnc3ccc(-c4ccc(Cl)cc4)cc3c21 [Compound 250] | 549 nM | 14.3 ×10⁻⁶ cm/s | 2.911 µM | 9.5 ug/mL | >30 min
29 | COc1cc(C(=O)NCCN(C)c2ccccc2)ccc1-n1c(=O)ccc2cnc3ccc(-c4ccc(Cl)cc4)cc3c21 [Compound 251] | 2370 nM | < 1 ×10⁻⁶ cm/s | 100 µM | <1 ug/mL | 1.3 min
30 | COc1cc(C(=O)NCCN2CCC2)ccc1-n1c(=O)ccc2cnc3ccc(-c4ccc(Cl)cc4)cc3c21 [Compound 253] | 258 nM | 353 ×10⁻⁶ cm/s | 8.463 µM | >80 ug/mL | >30 min
31 | COc1cc(C(=O)NC2CCN(CCO)CC2)ccc1-n1c(=O)ccc2cnc3ccc(-c4ccc(Cl)cc4)cc3c21 [Compound 254] | 206 nM | 5.7 ×10⁻⁶ cm/s | 3.012 µM | 53.1 ug/mL | >30 min
32 | COc1cc(C(=O)NCCCN2CCC(C)CC2)ccc1-n1c(=O)ccc2cnc3ccc(-c4ccc(Cl)cc4)cc3c21 [Compound 255] | 182 nM | 1040 ×10⁻⁶ cm/s | 12.95 µM | >88 ug/mL | 2.3 min
33 | COc1cc(C(=O)NCCN2CCCCC2)ccc1-n1c(=O)ccc2cnc3ccc(-c4ccc(Cl)cc4)cc3c21 [Compound 256] | 501 nM | 664 ×10⁻⁶ cm/s | 8.776 µM | <1 ug/mL | 3.5 min
34 | COc1cc(C(=O)NCCN2CCNCC2)ccc1-n1c(=O)ccc2cnc3ccc(-c4ccc(Cl)cc4)cc3c21 [Compound 257] | 60.8 nM | 1.5 ×10⁻⁶ cm/s | 2.719 µM | >84 ug/mL | >30 min
